Assay results published in ChEMBL document CHEMBL3639144, “Glycoside derivatives and uses thereof” (2013).

What was measured:
[1] = biological target: T1, Sodium/glucose cotransporter 2 (Homo sapiens, UniProt P31639); assay: (§1) These cell lines transport 14C-labelled alpha-methyl-glucopyranoside (14C-AMG, Amersham) into the interior of the cell in sodium-dependent manner.The SGLT-2 assay is carried out as follows: CHO-hSGLT2 cells are cultivated in Ham's F12 Medium (BioWhittaker) with 10% foetal calf serum and 250 ug/mL zeocin (Invitrogen), and HEK293-hSGLT2 cells are cultivated in DMEM medium with 10% foetal calf serum and 250 ug/mL zeocin (Invitrogen). The cells are detached from the culture flasks by washing twice with PBS.; format: cell-based
T1 sequence (P31639 whole entry): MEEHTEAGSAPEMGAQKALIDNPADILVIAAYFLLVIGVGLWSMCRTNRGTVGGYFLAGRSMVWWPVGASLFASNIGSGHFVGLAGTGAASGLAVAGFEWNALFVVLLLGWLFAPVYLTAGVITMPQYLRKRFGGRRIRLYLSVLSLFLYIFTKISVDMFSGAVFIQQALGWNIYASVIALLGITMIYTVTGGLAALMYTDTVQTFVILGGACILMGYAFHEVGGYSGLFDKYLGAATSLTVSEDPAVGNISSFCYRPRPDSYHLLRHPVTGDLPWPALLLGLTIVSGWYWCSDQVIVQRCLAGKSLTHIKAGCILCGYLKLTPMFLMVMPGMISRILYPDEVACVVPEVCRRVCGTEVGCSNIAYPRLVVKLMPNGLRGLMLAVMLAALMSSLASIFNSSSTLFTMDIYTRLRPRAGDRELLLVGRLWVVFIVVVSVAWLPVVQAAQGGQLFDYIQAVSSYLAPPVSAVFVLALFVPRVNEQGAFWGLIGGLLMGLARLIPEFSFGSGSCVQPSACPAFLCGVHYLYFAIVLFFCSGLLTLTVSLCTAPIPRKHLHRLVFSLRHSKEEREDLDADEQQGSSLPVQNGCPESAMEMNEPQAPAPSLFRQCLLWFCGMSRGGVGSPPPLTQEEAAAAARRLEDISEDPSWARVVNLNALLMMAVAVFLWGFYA

[2] = biological target: T2, Sodium/glucose cotransporter 1 (Homo sapiens, UniProt P13866); assay: as §1; format: cell-based
T2 sequence (P13866 whole entry): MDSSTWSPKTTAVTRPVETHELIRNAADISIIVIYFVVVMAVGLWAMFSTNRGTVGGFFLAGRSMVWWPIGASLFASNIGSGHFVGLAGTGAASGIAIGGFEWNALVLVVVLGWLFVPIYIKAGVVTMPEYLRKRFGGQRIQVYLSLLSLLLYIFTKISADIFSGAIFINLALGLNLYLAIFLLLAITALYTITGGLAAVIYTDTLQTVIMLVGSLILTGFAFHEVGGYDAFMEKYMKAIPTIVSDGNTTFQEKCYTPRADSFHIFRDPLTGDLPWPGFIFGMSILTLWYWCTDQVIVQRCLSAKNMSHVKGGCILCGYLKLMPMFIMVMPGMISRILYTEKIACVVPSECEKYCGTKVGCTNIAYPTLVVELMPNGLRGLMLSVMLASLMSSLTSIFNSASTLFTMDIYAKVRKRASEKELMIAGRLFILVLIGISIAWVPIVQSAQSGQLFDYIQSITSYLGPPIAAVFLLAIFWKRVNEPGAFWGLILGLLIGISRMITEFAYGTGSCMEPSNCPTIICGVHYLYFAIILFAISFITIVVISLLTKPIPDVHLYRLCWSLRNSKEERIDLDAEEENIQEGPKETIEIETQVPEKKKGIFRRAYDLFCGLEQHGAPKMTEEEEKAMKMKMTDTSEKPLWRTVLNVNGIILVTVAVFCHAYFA

`CCc1ccc([C@@H]2O[C@H](COP(=O)(O)O)[C@@H](O)[C@H](O)[C@H]2O)cc1Cc1ccc2c(c1)OCCO2` was tested, and the IC50 [1] was 2.4 nM and the IC50 [2] was 89.3 nM.

For `CCc1ccc([C@@H]2O[C@H](COC(=O)OC(C)(C)C)[C@@H](O)[C@H](O)[C@H]2O)cc1Cc1ccc2c(c1)OCCO2`, the IC50 [1] was 89 nM and the IC50 [2] was 188 nM.
